Values after ≈ are worked out from the molar mass of the structure shown. Read-outs that look alike come from different tables or passages of the source.
Assays:
[1] = target: 15-PGDH/HPGD (Homo sapiens (Human), UniProt P15428); assay: hPGDH inhibitor screening biochemical assay
Outline: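 Ten-point dose-response inhibition of 15-PGDH measured by fluorescence (340/485 nm) after 10 min at room temperature with PGE2 (15 μM) and NAD+ (0.25 mM), following 10 min enzyme (10 nM)–compound pre-incubation at 37 °C. Buffer: 50 mM Tris-HCl pH 7.5, 0.01% Tween 20. Percent inhibition relative to 1% DMSO; four-parameter IC50.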

[2] = Solubility at pH 7.4; assay type: physicochemical
[3] = Liver microsome stability assay (RLM); assay type: in vitro ADME; settings: rat liver microsomes
Description: (§1) A microsomal mixture (microsomes and Kphos buffer) was prepared at a concentration of 1.428 mg/mL in 2 mL tubes. To this microsomal mixture 1.6 μL (1 mM) of test compound and positive control were spiked; from this mixture, 70 μL was transferred to 96 well plate and pre-incubated at 37° C. for 5 min. After pre-incubation, the zero minute time point reaction was stopped using 100 μL of ice-cold acetonitrile containing internal standard and […] (3.33 mM in Kphos buffer) was added. The 45 minute time point reaction was initiated by addition of 30 μL of NADPH (3.33 mM in Kphos buffer) and incubated at 37° C. for 15 and 45 min. Reactions without NADPH and buffer controls (minus NADPH) at 0, 15, and 45 minutes were also incubated to rule out non-NADPH metabolism or chemical instability in the incubation buffer. Incubation reactions were stopped with 100 μL of ice-cold acetonitrile containing internal standard. The plates were centrifuged at 4000 RPM for 15 min and 100 μL aliquots were submitted for analysis by LC-MS/MS. (Verapamil in human liver microsomes (HLM) and rat liver microsomes (RLM) was used as positive controls. Imipramine in mouse liver microsomes (MLM) was used as a positive control.) Samples were monitored for parent compound disappearance in MRM mode (multiple reaction monitoring) using LC-MS/MS. The peak area ratios of analyte versus internal standard were used to calculate the % remaining at the end of 45 minutes in the presence of NADPH.

[4] = Liver microsome stability assay (MLM); assay type: in vitro ADME; settings: mouse liver microsomes
Outline: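 Mouse, rat or human liver microsomes (mixture at 1.428 mg/mL) in potassium phosphate buffer, 37 °C, incubated with compound after NADPH addition; minus-NADPH controls included. Parent loss by LC-MS/MS (MRM) with internal standard; value is % remaining at 45 min with NADPH.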

[5] = Liver microsome stability assay (HLM); assay type: in vitro ADME; settings: human liver microsomes
Description: as §1

[6] = pH 7.4, aqueous buffer, read-out: Solubility: Solubility at pH 7.4
[7] = aqueous buffer, pH 7.4, 6-5 ring core, read-out: Solubility at pH 7.4
[8] = aqueous buffer, pH 7.4, phenyl core, read-out: Solubility at pH 7.4

Sequence of 15-PGDH/HPGD (P15428 whole entry): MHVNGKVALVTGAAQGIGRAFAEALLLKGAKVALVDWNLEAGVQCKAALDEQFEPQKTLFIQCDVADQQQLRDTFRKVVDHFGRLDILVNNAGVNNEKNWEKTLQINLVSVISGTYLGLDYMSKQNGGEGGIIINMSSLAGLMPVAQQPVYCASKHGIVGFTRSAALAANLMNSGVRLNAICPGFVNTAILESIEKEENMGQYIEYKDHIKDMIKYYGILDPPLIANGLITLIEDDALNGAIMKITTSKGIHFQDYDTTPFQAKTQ

| Compound | IC50 ([1]; read-out: hPGDH: Average IC50) | RLM + NADPH (% remaining at 45 min) [3] | solubility [2, 7] | also measured |
| --- | --- | --- | --- | --- |
| CC(C)NC(=O)c1ccc(-n2ccc3cc(C(=O)N4CCC(F)(F)CC4)cnc32)cc1 [MF-DH-404] | < 100 nM |  |  | solubility [2, 6]: < 5 µM; MLM + NADPH (% remaining at 45 min) [4]: 101% |
| COc1ccccc1NC(=O)c1ccc(C(=O)N2CCCCC2)cc1 [drawing 232] |  |  |  | solubility [2, 8]: 88 µM (≈ 29.8 µg/mL) |
| O=C(c1ccc2c(c1)ncn2-c1cccc(Cl)c1)N1CC2(CCC2)C1 [drawing 212] |  |  | 16 µM (≈ 5.63 µg/mL) |  |
| Cc1cncc(-n2cc(Cl)c3cc(C(=O)N4CCC(F)CC4)cnc32)n1 [MF-DH-166, (3-chloro-1-(6-methylpyrazin-2-yl)-1H-pyrrolo[2,3-b]pyridin-5-yl)(4-fluoropiperidin-1-yl)methanone] | < 100 nM | 33% |  | HLM + NADPH (% remaining at 45 min) [5]: 47% |
| COc1ccc(-n2cnc3cc(C(=O)N4CCC(F)CC4)cnc32)cc1 [drawing 192] |  |  | 140 µM (≈ 49.6 µg/mL) |  |
| COc1ccc(-n2c(CC#N)nc3cc(C(=O)N4CCC(F)CC4)cnc32)cc1 [MF-DH-130] | 100 to 1000 nM | 74% |  | HLM + NADPH (% remaining at 45 min) [5]: 68% |
| O=C(c1cnc2c(ccn2-c2ccc3c(c2)OCO3)c1)N1CCC(F)CC1 [MF-DH-175] | < 100 nM | 45% |  | HLM + NADPH (% remaining at 45 min) [5]: 117% |
| O=C(c1ccc2c(c1)ncn2-c1cccc(Cl)c1)N1CC2CCCC2C1 (centres unmarked) [drawing 215] |  |  | 33 µM (≈ 12.1 µg/mL) |  |
| O=C(c1cnc2c(c1)ncn2-c1ccc(F)c(F)c1)N1CCC(F)CC1 [MF-DH-216] | 100 to 1000 nM | 64% |  |  |
| C[C@@H]1C[C@H](C)CN(C(=O)c2cnc3c(ccn3-c3ccc(C(N)=O)cc3)c2)C1 [MF-DH-395, 4-(5-((3R,5S)-3,5-dimethylpiperidine-1-carbonyl)-1H-pyrrolo[2,3-b]pyridin-1-yl)benzamide] | < 100 nM |  |  | solubility [2, 6]: 80 µM (≈ 30.1 µg/mL); MLM + NADPH (% remaining at 45 min) [4]: 8% |
| Cc1c(C(=O)N2CCC(F)CC2)cnc2c1ccn2-c1ccc(C(N)=O)cc1 [MF-DH-380, 4-(5-(4-fluoropiperidine-1-carbonyl)-4-methyl-1H-pyrrolo[2,3-b]pyridin-1-yl)benzamide] | < 100 nM |  |  | solubility [2, 6]: 75 µM (≈ 28.5 µg/mL); MLM + NADPH (% remaining at 45 min) [4]: 89% |
| COc1ccc(-n2cnc3cc(C(=O)N4CCC(F)CC4)ccc32)cc1 [drawing 222] |  |  | 160 µM (≈ 56.5 µg/mL) |  |
| O=C(c1ccc(COc2ccccc2Br)cc1)N1CCCCC1 [drawing 233] |  |  |  | solubility [2, 8]: 6.3 µM (≈ 2.36 µg/mL) |
| O=C(c1ccc(COc2ccccc2Cl)cc1)N1CCCCC1 [drawing 230] |  |  |  | solubility [2, 8]: 38 µM (≈ 12.5 µg/mL) |
| COc1ccccc1C(=O)Nc1ccc(C(=O)N2CCCCC2)cc1 [drawing 231] |  |  |  | solubility [2, 8]: 29 µM (≈ 9.81 µg/mL) |
| COc1ccc(-n2cnc3cc(C(=O)N4CCC(F)(F)CC4)cnc32)cc1 [drawing 191] |  |  | 140 µM (≈ 52.1 µg/mL) |  |
| O=C(c1cnc2c(c1)c(Cl)cn2-c1cnccn1)N1CCC(F)CC1 [MF-DH-124] | < 100 nM | 34% |  | HLM + NADPH (% remaining at 45 min) [5]: 48% |
| COc1ccc(-n2cc(C)c3cc(C(=O)N4CCC(F)CC4)ccc32)cc1 [MF-DH-190, (4-fluoropiperidin-1-yl)(1-(4-methoxyphenyl)-3-methyl-1H-indol-5-yl)methanone] | < 100 nM | 29% |  |  |
| Cc1ncc(-n2cc(Cl)c3cc(C(=O)N4CCC(F)CC4)cnc32)cn1 [MF-DH-169, (3-chloro-1-(2-methylpyrimidin-5-yl)-1H-pyrrolo[2,3-b]pyridin-5-yl)(4-fluoropiperidin-1-yl)methanone] | < 100 nM | 69% |  | HLM + NADPH (% remaining at 45 min) [5]: 71% |
| O=C(c1cnc2c(ccn2-c2cncc(-c3nnn[nH]3)c2)c1)N1CCC(F)(F)CC1 [MF-DH-453, (1-(5-(1H-tetrazol-5-yl)pyridin-3-yl)-1H-pyrrolo[2,3-b]pyridin-5-yl)(4,4-difluoropiperidin-1-yl)methanone] | < 100 nM |  |  | solubility [2, 6]: > 100 µM; MLM + NADPH (% remaining at 45 min) [4]: 116% |
| O=C(Nc1cncc(-n2ccc3cc(C(=O)N4CCC(F)(F)CC4)cnc32)c1)c1ccno1 [MF-DH-458] | < 100 nM |  |  | solubility [2, 6]: 62 µM (≈ 28.1 µg/mL); MLM + NADPH (% remaining at 45 min) [4]: 68% |
| COc1ccc(-n2nc(Cl)c3cc(C(=O)N4CCC(F)CC4)ccc32)cc1 [MF-DH-246] | 100 to 1000 nM | 46% |  |  |
| O=C(O)c1ccc(-n2ccc3cc(C(=O)N4CCC(F)(F)CC4)cnc32)cc1 [MF-DH-424, 4-(5-(4,4-difluoropiperidine-1-carbonyl)-1H-pyrrolo[2,3-b]pyridin-1-yl)benzoic acid] | < 100 nM |  |  | solubility [2, 6]: 156 µM (≈ 60.1 µg/mL); MLM + NADPH (% remaining at 45 min) [4]: 96% |
| COc1ccc(Cn2ncc3cc(-n4ccc5cc(C(=O)N6CCCCC6)cnc54)ccc32)cc1 [MF-DH-337] | < 100 nM | 1% |  | solubility [2, 6]: < 5 µM |
| O=C(c1cnc2c(ccn2-c2cncc(-c3noc(=O)[nH]3)c2)c1)N1CCC(F)(F)CC1 [MF-DH-454, 3-(5-(5-(4,4-difluoropiperidine-1-carbonyl)-1H-pyrrolo[2,3-b]pyridin-1-yl)pyridin-3-yl)-1,2,4-oxadiazol-5(4H)-one] | < 100 nM |  |  | solubility [2, 6]: > 100 µM; MLM + NADPH (% remaining at 45 min) [4]: 92% |
| COc1ccccc1C(=O)N(C)c1ccc(C(=O)N2CCCCC2)cc1 [drawing 229] |  |  |  | solubility [2, 8]: 160 µM (≈ 56.4 µg/mL) |
| COc1ccc(-n2nnc3cc(C(=O)N4CCC(F)CC4)ccc32)cc1 [MF-DH-242, (4-fluoropiperidin-1-yl)(1-(4-methoxyphenyl)-1H-benzo[d][1,2,3]triazol-5-yl)methanone] | < 100 nM | 51% |  |  |

Continued, in another order:

| IC50 ([1]; read-out: hPGDH: Average IC50) | RLM + NADPH (% remaining at 45 min) [3] | solubility [2, 7] | Compound | also measured |
| --- | --- | --- | --- | --- |
| < 100 nM | 27% |  | O=C(c1ccc2c(cnn2-c2cncc(Cl)c2)c1)N1CCCCC1 [MF-DH-292] | solubility [2, 6]: 69 µM (≈ 23.5 µg/mL) |
|  |  | 160 µM (≈ 53.8 µg/mL) | COc1ccc(-n2cnc3cc(C(=O)N4CCCCC4)cnc32)cc1 [drawing 193] |  |
|  |  | 6.9 µM (≈ 2.34 µg/mL) | O=C(c1ccc2c(cnn2-c2cccc(Cl)c2)c1)N1CCCCC1 [drawing 224] |  |
|  |  | 21 µM (≈ 7.14 µg/mL) | O=C(c1cnc2c(ccn2-c2cccc(Cl)c2)c1)N1CCCCC1 [drawing 216] | IC50 ([1]; PGDH inhibitors with a 6-5 ring core, read-out: hPGDH: IC50): 1.5 nM |
|  |  | 150 µM (≈ 50.3 µg/mL) | COc1ccc(-n2cnc3cc(C(=O)N4CCCCC4)ccc32)cc1 [drawing 223] |  |
|  |  | 68 µM (≈ 23.2 µg/mL) | O=C(c1ccc2c(c1)nnn2-c1cccc(Cl)c1)N1CCCCC1 [drawing 221] |  |
|  |  | 45 µM (≈ 16.9 µg/mL) | COc1ccc(-n2c(C3CC3)nc3cc(C(=O)N4CCCCC4)ccc32)cc1 [drawing 218] |  |
| < 100 nM | 9% |  | COc1ccc(-n2c(C)nc3cc(C(=O)N4CCCCC4)ccc32)cc1 [MF-DH-206] |  |
|  |  | < 5 µM | O=C(c1cnc2c(-c3cccc(Cl)c3)cnn2c1)N1CCCCC1 [drawing 220] |  |
|  |  | 150 µM (≈ 51.1 µg/mL) | O=C(c1cnc2c(c1)ncn2-c1cccc(Cl)c1)N1CCCCC1 [drawing 219] |  |
|  |  | 120 µM (≈ 40.8 µg/mL) | O=C(c1ccc2c(c1)ncn2-c1cccc(Cl)c1)N1CCCCC1 [drawing 211] |  |
| < 100 nM | 40% |  | CCOc1ccc(-n2cnc3cc(C(=O)N4CCCCC4)cnc32)cc1 [MF-DH-225] |  |
| 100 to 1000 nM | 67% |  | COCCc1nc2cc(C(=O)N3CCCCC3)cnc2n1-c1ccc(OC)cc1 [MF-DH-267] |  |
| 100 to 1000 nM | 48% |  | O=C(c1cnc2c(c1)ncn2-c1cccc(OC(F)(F)F)c1)N1CCCCC1 [MF-DH-227] |  |
| < 100 nM | 0% |  | CCC(CC)n1cnc2cc(C(=O)N3CCCCC3)ccc21 [MF-DH-237] |  |
| < 100 nM | 45% |  | O=C(c1cnc2c(c1)ncn2-c1ccc(F)cc1)N1CCCCC1 [MF-DH-215] |  |
| 100 to 1000 nM | 60% |  | COc1ccc(-n2c(CCC(F)(F)F)nc3cc(C(=O)N4CCCCC4)cnc32)cc1 [MF-DH-268] |  |
| ≥ 1000 nM | 48% |  | CCC(CC)n1cnc2cc(C(=O)N3CCC(F)CC3)cnc21 [MF-DH-201] |  |
|  |  | < 5 µM | O=C(c1ccc2c(ccn2-c2cccc(Cl)c2)c1)N1CCCCC1 [drawing 225] |  |
| < 100 nM | 26% |  | O=C(c1cnc2c(c1)ncn2-c1ccc(OC(F)(F)F)cc1)N1CCCCC1 [MF-DH-219] |  |

From patent US11345702B1 (Myoforte Therapeutics, Inc., priority 2020, dated 2022)
